In paper PMC7392148 (Bioorganic & medicinal chemistry, 2020):

Experiments:
panel of 168 GPCRs = assay: PathHunter β-arrestin cell-based assays, antagonist primary screen; conditions: for antagonistic activity in the primary screen: 20 μM, significant = ≥80% inhibition; for hit rate: from the 168 GPCRs tested; for number of GPCRs antagonized at ≥80% inhibition: primary screen at 20 μM
[1] = molecular target: T1, follicle-stimulating hormone receptor (FSHR) (Homo sapiens, UniProt P23945); assay: PathHunter β-arrestin antagonist assay; assay type: cell-based
T1 sequence (P23945 18-695): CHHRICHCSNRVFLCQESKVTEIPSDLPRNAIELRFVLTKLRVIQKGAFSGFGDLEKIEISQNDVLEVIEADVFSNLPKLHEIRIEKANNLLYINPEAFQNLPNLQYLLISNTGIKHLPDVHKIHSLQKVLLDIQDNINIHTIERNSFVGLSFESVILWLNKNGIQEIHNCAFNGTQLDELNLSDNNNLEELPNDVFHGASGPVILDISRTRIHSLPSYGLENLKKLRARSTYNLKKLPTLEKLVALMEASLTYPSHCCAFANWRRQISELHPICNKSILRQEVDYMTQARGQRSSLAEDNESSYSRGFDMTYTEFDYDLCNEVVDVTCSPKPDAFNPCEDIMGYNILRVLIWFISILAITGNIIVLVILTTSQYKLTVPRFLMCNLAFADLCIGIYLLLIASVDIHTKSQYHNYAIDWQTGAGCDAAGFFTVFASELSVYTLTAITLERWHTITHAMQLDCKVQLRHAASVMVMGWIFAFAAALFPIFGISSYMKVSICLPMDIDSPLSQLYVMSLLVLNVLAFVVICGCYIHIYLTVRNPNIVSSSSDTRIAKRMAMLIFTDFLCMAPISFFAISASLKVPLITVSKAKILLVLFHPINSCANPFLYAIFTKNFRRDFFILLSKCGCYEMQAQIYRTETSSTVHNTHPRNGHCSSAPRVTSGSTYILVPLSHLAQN

[2] = molecular target: T2, neuropeptide S receptor 1 (NPSR1B) (Homo sapiens, UniProt Q6W5P4); assay: PathHunter β-arrestin antagonist assay; assay type: cell-based
T2 sequence (Q6W5P4 1-377 isoform Q6W5P4-4): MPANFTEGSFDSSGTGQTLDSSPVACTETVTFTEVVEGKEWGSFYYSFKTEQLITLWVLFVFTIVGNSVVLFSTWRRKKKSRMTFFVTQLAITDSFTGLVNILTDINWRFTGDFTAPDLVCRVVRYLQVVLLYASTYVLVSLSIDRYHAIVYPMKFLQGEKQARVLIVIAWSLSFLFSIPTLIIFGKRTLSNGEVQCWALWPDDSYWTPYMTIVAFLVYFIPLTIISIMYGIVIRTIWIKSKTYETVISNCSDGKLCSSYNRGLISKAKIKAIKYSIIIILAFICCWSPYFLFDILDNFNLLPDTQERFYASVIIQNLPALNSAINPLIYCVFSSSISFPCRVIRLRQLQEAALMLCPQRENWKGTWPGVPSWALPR

[3] = molecular target: T3, prolactin releasing hormone receptor (PRLHR) (Homo sapiens, UniProt P49683); assay: PathHunter β-arrestin antagonist assay; assay type: cell-based
T3 sequence (P49683 1-370): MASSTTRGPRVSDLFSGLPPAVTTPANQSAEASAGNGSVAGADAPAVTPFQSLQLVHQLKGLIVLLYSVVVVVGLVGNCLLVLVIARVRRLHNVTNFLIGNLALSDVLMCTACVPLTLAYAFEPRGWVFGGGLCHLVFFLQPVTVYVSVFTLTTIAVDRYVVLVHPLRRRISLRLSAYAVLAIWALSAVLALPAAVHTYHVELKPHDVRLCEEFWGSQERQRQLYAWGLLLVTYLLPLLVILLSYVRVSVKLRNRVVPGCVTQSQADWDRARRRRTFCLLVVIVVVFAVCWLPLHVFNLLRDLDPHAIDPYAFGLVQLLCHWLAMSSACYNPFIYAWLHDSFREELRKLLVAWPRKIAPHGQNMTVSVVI

chemokine receptor CCR3 = molecular target: T4, chemokine receptor CCR3 (Homo sapiens, UniProt P51677); assay: PathHunter β-arrestin antagonist assay; assay type: cell-based
T4 sequence (P51677 1-355): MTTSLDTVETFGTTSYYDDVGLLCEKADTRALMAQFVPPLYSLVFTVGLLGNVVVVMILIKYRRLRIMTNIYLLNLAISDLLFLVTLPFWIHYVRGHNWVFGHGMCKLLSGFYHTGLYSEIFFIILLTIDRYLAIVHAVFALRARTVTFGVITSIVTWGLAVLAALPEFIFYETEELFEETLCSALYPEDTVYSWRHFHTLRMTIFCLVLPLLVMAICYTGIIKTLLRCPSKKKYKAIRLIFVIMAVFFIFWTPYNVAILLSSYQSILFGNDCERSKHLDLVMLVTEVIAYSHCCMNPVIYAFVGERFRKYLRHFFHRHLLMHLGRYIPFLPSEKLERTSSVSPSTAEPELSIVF

chemokine receptor CCR8 = chemokine receptor CCR8 (Homo sapiens, UniProt P51685); assay: PathHunter β-arrestin antagonist assay; assay type: cell-based
Sequence of chemokine receptor CCR8 (P51685 whole entry): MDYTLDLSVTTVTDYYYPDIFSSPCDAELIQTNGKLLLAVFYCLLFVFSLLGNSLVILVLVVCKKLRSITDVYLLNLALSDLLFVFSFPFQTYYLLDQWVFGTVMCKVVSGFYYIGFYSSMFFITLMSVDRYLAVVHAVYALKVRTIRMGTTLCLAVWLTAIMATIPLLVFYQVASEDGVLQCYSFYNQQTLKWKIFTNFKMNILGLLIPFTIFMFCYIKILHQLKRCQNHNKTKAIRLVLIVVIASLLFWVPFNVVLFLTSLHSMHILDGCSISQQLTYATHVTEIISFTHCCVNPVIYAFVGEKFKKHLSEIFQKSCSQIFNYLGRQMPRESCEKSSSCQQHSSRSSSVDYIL

CX3CR1 = molecular target: T5, CX3CR1 (Homo sapiens, UniProt P49238); assay: PathHunter β-arrestin antagonist assay; assay type: cell-based
T5 sequence (P49238 1-355): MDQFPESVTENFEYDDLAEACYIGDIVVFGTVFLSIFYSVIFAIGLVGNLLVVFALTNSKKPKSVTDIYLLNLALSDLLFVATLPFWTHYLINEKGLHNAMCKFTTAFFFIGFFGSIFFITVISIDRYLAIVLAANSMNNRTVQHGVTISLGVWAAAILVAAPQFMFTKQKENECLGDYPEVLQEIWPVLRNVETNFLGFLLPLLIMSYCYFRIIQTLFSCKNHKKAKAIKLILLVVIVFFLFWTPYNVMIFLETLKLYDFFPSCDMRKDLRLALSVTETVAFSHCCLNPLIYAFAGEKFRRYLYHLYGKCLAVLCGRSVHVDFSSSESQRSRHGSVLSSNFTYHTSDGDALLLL

CXCR4 = CXCR4 (Homo sapiens, UniProt P61073); assay: PathHunter β-arrestin antagonist assay; assay type: cell-based
Sequence of CXCR4 (P61073 whole entry): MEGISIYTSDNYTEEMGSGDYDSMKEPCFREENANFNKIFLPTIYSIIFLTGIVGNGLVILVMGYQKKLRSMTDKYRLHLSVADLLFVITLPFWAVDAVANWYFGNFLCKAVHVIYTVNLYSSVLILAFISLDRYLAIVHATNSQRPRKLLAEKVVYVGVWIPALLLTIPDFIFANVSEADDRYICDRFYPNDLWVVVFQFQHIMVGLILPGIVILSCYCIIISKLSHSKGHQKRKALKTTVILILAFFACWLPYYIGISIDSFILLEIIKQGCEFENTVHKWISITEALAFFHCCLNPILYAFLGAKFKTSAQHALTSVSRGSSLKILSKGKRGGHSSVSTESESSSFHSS

[4] = molecular target: T6, 5-hydroxytryptamine (serotonin) receptor (HTR2C) (Homo sapiens, UniProt P28335); assay: PathHunter β-arrestin antagonist assay; assay type: cell-based
T6 sequence (P28335 33-458): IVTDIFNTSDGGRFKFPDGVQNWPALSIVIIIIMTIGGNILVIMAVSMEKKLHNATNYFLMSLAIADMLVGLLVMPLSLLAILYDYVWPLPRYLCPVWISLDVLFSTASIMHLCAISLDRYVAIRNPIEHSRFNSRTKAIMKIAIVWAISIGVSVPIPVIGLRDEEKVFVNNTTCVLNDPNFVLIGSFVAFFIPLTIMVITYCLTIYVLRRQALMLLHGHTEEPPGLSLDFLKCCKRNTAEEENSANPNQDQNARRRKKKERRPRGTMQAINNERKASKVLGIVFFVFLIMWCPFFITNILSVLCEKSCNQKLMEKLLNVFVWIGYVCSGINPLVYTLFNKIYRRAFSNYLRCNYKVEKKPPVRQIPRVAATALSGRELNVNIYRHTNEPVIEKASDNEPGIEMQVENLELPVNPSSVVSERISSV

AVPR2 = AVPR2 (Homo sapiens, UniProt P30518); assay: PathHunter β-arrestin antagonist assay; assay type: cell-based
Sequence of AVPR2 (P30518 whole entry): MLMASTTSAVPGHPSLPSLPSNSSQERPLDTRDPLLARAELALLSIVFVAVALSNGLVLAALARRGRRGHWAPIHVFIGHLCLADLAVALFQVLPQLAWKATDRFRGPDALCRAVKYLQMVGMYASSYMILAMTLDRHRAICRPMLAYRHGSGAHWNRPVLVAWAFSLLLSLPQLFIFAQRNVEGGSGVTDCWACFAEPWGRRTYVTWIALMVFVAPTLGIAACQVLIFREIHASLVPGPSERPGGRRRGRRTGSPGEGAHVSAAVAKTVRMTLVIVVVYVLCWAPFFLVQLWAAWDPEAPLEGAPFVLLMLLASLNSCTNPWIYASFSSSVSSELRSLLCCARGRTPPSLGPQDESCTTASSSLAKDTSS

oxytocin receptor (OXTR) = molecular target: T7, oxytocin receptor (OXTR) (Homo sapiens, UniProt P30559); assay: PathHunter β-arrestin antagonist assay; assay type: cell-based
T7 sequence (P30559 1-389): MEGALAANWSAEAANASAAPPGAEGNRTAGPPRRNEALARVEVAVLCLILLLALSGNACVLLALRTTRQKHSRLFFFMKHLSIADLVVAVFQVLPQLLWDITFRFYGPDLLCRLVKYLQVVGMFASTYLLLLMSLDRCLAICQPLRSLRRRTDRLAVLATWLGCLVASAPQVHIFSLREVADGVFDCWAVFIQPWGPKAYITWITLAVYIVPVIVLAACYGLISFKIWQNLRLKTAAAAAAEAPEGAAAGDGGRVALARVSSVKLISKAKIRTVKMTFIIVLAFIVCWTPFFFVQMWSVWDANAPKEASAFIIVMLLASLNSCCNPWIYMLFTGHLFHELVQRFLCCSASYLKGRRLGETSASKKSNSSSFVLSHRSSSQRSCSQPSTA

[5] = test system: dopamine D2b receptor (DRD2L); assay: PathHunter β-arrestin antagonist assay; assay type: cell-based; conditions: primary screen at 20 μM
[6] = test system: hydroxytryptamine receptor (HTR1B); assay: PathHunter β-arrestin antagonist assay; assay type: cell-based; conditions: primary screen at 20 μM
AVPR1A = assay: PathHunter β-arrestin antagonist assay; assay type: cell-based; conditions: primary screen at 20 μM
AVPR1B = assay: PathHunter β-arrestin antagonist assay; assay type: cell-based; conditions: primary screen at 20 μM
ADRA2A = assay: PathHunter β-arrestin antagonist assay; assay type: cell-based; conditions: primary screen at 20 μM

COC(=O)[C@@H]1[C@H]2C[C@@H](OCc3ccc(Br)cc3)c3[nH]c4ccccc4c3CCN(C#N)C[C@@H]2CC[C@@H]1O [Y6p]
antagonistic activity in the primary screen (panel of 168 GPCRs): significant inhibitory activities | hit rate (panel of 168 GPCRs): 2.4% | number of GPCRs antagonized at ≥80% inhibition (panel of 168 GPCRs): four | inhibition at 20 µM [1]: ≥ 80% | inhibition at 20 µM [2]: ≥ 80% | inhibition at 20 µM [3]: ≥ 80%

COC(=O)[C@@H]1[C@H]2C[C@@H]3OCc4ccccc4-n4c3c(c3ccccc34)CCN(C#N)C[C@@H]2CC[C@@H]1O [Y4a]
antagonistic activity in the primary screen (panel of 168 GPCRs): inactive

COC(=O)[C@@H]1[C@H]2C[C@@H](c3[nH]c4ccccc4c3CCn3cc(-c4cccc(Cl)c4)nn3)N(C#N)C[C@@H]2CC[C@@H]1O [Y1f]
antagonistic activity in the primary screen (panel of 168 GPCRs): significant inhibitory activities | hit rate (panel of 168 GPCRs): 3.0% | number of GPCRs antagonized at ≥80% inhibition (panel of 168 GPCRs): five | inhibition at 20 µM (chemokine receptor CCR3): ≥ 80% | inhibition at 20 µM (chemokine receptor CCR8): ≥ 80% | inhibition at 20 µM (CX3CR1): ≥ 80% | inhibition at 20 µM (CXCR4): ≥ 80% | inhibition at 20 µM [4]: ≥ 80%

COC(=O)[C@@H]1[C@H]2C[C@@H]3N(CC[C@@]34C(=O)N(c3cncc(OC)n3)c3ccccc34)C[C@@H]2CC[C@@H]1O [Y3h]
antagonistic activity in the primary screen (panel of 168 GPCRs): inactive

COC(=O)[C@@H]1[C@H]2C[C@H]3c4[nH]c5ccccc5c4CCN3C[C@@H]2CC[C@@H]1O [yohimbine, reference compound]
inhibition at 20 µM (AVPR2): ≤ 5% | inhibition at 20 µM (oxytocin receptor (OXTR)): ≤ 5% | antagonistic activity in the GPCR screen [5]: inhibited | antagonistic activity in the GPCR screen [6]: inhibited

COC(=O)[C@@H]1[C@H]2C[C@@H]([C@@]3(CCn4cc(CCCCO)nn4)C(=O)Nc4ccccc43)N(C#N)C[C@@H]2CC[C@@H]1O [Y2e]
antagonistic activity in the primary screen (panel of 168 GPCRs): inactive

COC(=O)[C@@H]1[C@H]2C[C@@H]3N(CC[C@@]34C(=O)N(Cc3cccc(OC)c3)c3ccccc34)C[C@@H]2CC[C@@H]1OCc1cccc(OC)c1 [Y7g]
antagonistic activity in the primary screen (panel of 168 GPCRs): significant inhibitory activities | hit rate (panel of 168 GPCRs): 2.4% | antagonistic activity in the GPCR screen (AVPR1A): inhibited | antagonistic activity in the GPCR screen (AVPR1B): inhibited | antagonistic activity in the GPCR screen [5]: not inhibited | antagonistic activity in the GPCR screen [6]: not inhibited | antagonistic activity in the GPCR screen (ADRA2A): not inhibited

COC(=O)[C@@H]1[C@H]2C[C@H]3OCc4ccccc4-n4c3c(c3ccccc34)CCN(C#N)C[C@@H]2CC[C@@H]1O [Y5a]
antagonistic activity in the primary screen (panel of 168 GPCRs): inactive
